{
  "source": "patent US8193200B2",
  "about": "“Antagonists of A2B adenosine receptors for treatment of inflammatory bowel disease” (University of Virginia Patent Foundation, priority 2007, dated 2012)",
  "test_system": "IL-6 and KC secretion",
  "test": "IL-6 and KC ELISA in colon organ culture supernatants, IL-10-/- model",
  "format": "in vivo, mouse",
  "description": "In the DSS-model proinflammatory cytokines were measured by real time PCR. Total RNA was extracted from DSS treated, DSS+ATL-801 and control colonic tissue using the TRizol reagent. After quantification, a reverse transcription (RT) reaction was performed with 2 μg of each sample and oligo-dT primer, using the SuperScript First strand synthesis system for RT-PCR (Invitrogen, CA). The real-time iCycler sequence detection system (Bio-Rad) was used for the real-time RT-PCR. Briefly, 3 ng of reverse transcribed cDNA, 500 nM of gene-specific primers and the iQ SYBR Green Supermix (Biorad, Hercules, Calif.) were amplified at 50° C. for 2 min and 95° C. for 10 min, followed by 40 cycles of 95° C. for 15 s and 60° C. for 1 min. The 36B4 expression levels were used as reference, and fold-induction was calculated using a standard curve. For graphical representation of quantitative PCR data, raw cycle threshold values (Ct values) obtained for treated mice were deducted from the Ct value obtained for internal 36B4 transcript levels, using the Ct method as follows: ΔΔCT=(Ct Target−Ct 36B4)treatment−(Ct Target−Ct 36B4) no treatment, and the final data were derived from 2^−ΔΔCT. Primers used: IL-6 sense 5′-ACAAGTCGGAGGCTTAATTACACAT-3′ (SEQ ID NO:1) antisense 5′-TTGCCATTGCACAACTCTTTTC-3′ (SEQ ID NO:2), MIP-2 sense 5AGT GAA CTG CGC TGT CAA TGC-3′ (SEQ ID NO:3) antisense 5′ AGGCAAACTTTTTGACCGCC 3′ (SEQ ID NO:4). In IL-10−/− model proinflammatory cytokines were measured by ELISA in organ cultures. Colon organ cultures were prepared from IL-10^−/− mice with and with out ATL-801 along with piroxicam. Colons were dissected from mice and flushed with cold PBS to remove fecal matter. Each colon was cut in to 1 cm length and washed in HBSS with pencillin/streptomycin and cultured in serum free RPMI-1640 supplemented with penicillin and streptomycin. […] Supernatants were harvested after 24 hours, centrifuged and stored at −80° C. before IL-6 and keratinocyte derived chemokine, KC levels were measured by ELISA. […] IL-8 was measured in the supernatants by ELISA.",
  "data": [
    {"smiles": "CCCn1c(=O)n(C2CC2)c(=O)c2[nH]c(-c3ccc(N(CC)C(=O)c4cccnc4)nc3)nc21", "note": "[ATL-801]", "values": [
      {"measurement": "effect of ATL-801 alone on IL-6 or IL-8 levels", "setting": "ATL-801 alone (data not shown)", "value": "no effect"},
      {"measurement": "IL-6 levels in colon culture supernatant", "setting": "IL-10-/- mice, piroxicam + ATL-801, 24 h culture, piroxicam alone 1.9±0.3, untreated 0.7±0.1", "value": "0.46 ± 0.1", "unit": "ng/mL"},
      {"measurement": "KC secretion in colon culture supernatant", "setting": "IL-10-/- mice, piroxicam+ATL-801, piroxicam alone 5.6±0.6", "value": "3.7 ± 0.8", "unit": "ng/mL"}
    ]}
  ]
}
